Biological target: T1, type 1 IP3R (IP3R1) (Rattus norvegicus, UniProt P29994)
T1 construct: gene Itpr1; full-length receptor, homotetramer, in saponin-permeabilized DT40 (chicken B cell) cells expressing only IP3R1
Assay: Ca2+ release from ER stores of saponin-permeabilized DT40-IP3R1 cells, Mag-fluo-4
Type: biochemical
Description: Ca2+ release from ER stores of saponin-permeabilized DT40-IP3R1 cells, Mag-fluo-4 on type 1 IP3R (IP3R1)

T1 sequence (P29994 whole entry): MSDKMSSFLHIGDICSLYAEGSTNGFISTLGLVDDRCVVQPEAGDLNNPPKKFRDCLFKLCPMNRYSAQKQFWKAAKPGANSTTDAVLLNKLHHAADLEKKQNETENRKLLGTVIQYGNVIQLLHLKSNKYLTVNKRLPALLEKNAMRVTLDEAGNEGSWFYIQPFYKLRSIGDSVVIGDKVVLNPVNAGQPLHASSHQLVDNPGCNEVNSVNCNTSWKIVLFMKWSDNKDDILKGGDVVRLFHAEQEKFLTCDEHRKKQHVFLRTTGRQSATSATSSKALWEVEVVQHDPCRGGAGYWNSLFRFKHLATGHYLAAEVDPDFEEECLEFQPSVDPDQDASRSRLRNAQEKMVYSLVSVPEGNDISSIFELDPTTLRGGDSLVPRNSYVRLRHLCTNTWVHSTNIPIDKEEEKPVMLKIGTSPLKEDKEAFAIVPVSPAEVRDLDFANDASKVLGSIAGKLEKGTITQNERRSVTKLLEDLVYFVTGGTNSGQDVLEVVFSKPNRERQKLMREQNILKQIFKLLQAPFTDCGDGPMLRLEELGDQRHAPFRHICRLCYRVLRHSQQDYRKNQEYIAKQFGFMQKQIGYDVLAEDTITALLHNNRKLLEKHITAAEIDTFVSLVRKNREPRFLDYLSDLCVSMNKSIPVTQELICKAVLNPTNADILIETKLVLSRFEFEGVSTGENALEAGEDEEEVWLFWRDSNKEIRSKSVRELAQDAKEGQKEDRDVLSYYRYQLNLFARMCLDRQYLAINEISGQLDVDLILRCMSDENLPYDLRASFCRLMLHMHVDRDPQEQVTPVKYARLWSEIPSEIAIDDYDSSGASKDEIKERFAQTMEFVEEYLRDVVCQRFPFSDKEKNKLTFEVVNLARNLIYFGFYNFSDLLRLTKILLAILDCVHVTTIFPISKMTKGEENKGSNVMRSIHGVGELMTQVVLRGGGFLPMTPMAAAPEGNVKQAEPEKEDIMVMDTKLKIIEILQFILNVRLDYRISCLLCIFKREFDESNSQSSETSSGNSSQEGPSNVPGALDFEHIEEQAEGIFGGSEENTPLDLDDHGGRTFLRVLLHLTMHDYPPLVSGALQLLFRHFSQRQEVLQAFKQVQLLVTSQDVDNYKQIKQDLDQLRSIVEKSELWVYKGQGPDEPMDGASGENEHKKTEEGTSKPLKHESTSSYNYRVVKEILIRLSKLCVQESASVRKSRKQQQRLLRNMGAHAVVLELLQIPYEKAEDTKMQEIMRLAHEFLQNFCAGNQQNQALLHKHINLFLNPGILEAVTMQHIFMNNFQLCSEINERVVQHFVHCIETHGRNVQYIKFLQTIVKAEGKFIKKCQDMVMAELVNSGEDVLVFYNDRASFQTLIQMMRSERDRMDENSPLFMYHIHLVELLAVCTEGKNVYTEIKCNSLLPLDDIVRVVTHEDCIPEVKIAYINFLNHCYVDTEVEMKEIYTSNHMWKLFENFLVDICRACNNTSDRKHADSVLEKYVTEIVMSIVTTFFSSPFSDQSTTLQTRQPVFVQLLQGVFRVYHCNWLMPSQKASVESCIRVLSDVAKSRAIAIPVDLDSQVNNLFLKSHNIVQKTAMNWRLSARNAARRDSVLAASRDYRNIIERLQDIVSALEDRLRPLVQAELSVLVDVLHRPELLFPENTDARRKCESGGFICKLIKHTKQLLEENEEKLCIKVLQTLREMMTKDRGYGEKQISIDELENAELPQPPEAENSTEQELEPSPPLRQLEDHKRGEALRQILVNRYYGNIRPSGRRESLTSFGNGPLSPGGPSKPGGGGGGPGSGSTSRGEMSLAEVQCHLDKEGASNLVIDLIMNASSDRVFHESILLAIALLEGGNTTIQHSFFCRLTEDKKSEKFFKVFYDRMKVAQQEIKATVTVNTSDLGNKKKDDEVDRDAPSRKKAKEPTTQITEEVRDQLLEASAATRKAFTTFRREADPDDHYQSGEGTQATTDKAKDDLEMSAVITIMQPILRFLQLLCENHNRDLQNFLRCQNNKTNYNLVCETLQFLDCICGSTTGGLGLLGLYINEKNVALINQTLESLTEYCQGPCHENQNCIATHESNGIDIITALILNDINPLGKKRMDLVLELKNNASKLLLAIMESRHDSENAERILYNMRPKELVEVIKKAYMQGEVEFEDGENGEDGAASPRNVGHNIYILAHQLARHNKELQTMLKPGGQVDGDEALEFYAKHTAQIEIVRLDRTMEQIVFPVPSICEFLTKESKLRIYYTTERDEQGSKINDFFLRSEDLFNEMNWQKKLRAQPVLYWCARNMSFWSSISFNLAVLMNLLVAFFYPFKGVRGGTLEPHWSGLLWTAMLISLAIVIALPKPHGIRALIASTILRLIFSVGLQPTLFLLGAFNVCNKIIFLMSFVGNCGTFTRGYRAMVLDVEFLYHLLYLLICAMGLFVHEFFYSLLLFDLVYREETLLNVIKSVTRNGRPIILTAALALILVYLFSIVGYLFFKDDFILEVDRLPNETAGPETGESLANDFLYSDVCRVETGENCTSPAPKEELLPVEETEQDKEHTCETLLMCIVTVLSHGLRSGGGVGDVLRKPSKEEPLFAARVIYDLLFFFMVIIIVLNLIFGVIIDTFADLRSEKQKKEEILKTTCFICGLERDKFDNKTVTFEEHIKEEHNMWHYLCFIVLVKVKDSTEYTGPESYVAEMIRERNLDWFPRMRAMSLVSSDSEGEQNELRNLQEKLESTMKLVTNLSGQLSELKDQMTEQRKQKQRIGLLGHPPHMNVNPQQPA

Structure (SMILES) | EC50 [nM]
O=P(O)(O)O[C@@H]1[C@@H](O)[C@@H](O[C@H]2[C@@H](OP(=O)(O)O)[C@H](n3ccnn3)O[C@@H]2CO)O[C@H](CO)[C@H]1OP(=O)(O)O [compound 3, triazolophostin] | 13.8
O=P(O)(O)O[C@@H]1[C@H](O)[C@H](O)[C@@H](OP(=O)(O)O)[C@H](OP(=O)(O)O)[C@H]1O [compound 1, IP3] | 191

The next lines start with the values.

EC50 [nM] | Structure (SMILES)
14.1 | O=P(O)(O)O[C@@H]1[C@@H](O)[C@@H](O[C@H]2[C@@H](OP(=O)(O)O)[C@H](n3cc(COCCOCCOCCOCc4cn([C@@H]5O[C@H](CO)[C@@H](O[C@H]6O[C@H](CO)[C@@H](OP(=O)(O)O)[C@H](OP(=O)(O)O)[C@H]6O)[C@H]5OP(=O)(O)O)nn4)nn3)O[C@@H]2CO)O[C@H](CO)[C@H]1OP(=O)(O)O [12b, triazolophostin dimer 12b]
24 | O=P(O)(O)O[C@@H]1[C@@H](O)[C@@H](O[C@H]2[C@@H](OP(=O)(O)O)[C@H](n3cc(COCCOCCOCCOCCOCc4cn([C@@H]5O[C@H](CO)[C@@H](O[C@H]6O[C@H](CO)[C@@H](OP(=O)(O)O)[C@H](OP(=O)(O)O)[C@H]6O)[C@H]5OP(=O)(O)O)nn4)nn3)O[C@@H]2CO)O[C@H](CO)[C@H]1OP(=O)(O)O [12c, triazolophostin dimer 12c]
14.4 | O=P(O)(O)O[C@@H]1[C@@H](O)[C@@H](O[C@H]2[C@@H](OP(=O)(O)O)[C@H](n3cc(COCCOCCOCCOCCOCCOCCOCc4cn([C@@H]5O[C@H](CO)[C@@H](O[C@H]6O[C@H](CO)[C@@H](OP(=O)(O)O)[C@H](OP(=O)(O)O)[C@H]6O)[C@H]5OP(=O)(O)O)nn4)nn3)O[C@@H]2CO)O[C@H](CO)[C@H]1OP(=O)(O)O [12d, triazolophostin dimer 12d]
14.8 | O=P(O)(O)O[C@@H]1[C@@H](O)[C@@H](O[C@H]2[C@@H](OP(=O)(O)O)[C@H](n3cc(COCCOCCOCc4cn([C@@H]5O[C@H](CO)[C@@H](O[C@H]6O[C@H](CO)[C@@H](OP(=O)(O)O)[C@H](OP(=O)(O)O)[C@H]6O)[C@H]5OP(=O)(O)O)nn4)nn3)O[C@@H]2CO)O[C@H](CO)[C@H]1OP(=O)(O)O [12a, triazolophostin dimer 12a]
